From patent publication US20250163013A1, “TREATMENT OF GENITOURINARY SYNDROME OF MENOPAUSE” (THE REGENTS OF THE UNIVERSITY OF COLORADO, a body corporate, priority 2022, published 2025)
Entries after “also recorded” stand apart in the source; their conditions may differ.

Assays:
estrogen receptor = test: Screen for agonist or antagonist effects on steroid hormone receptor-mediated gene expression; format: cell-based; conditions: cell lines with endogenous genes or stably integrated reporter genes
Protocol: A screen for the agonist or antagonist effects of a set of commercially available flavonoids was done by assessing their ability to induce or inhibit steroid hormone receptor-mediated gene expression. Cell lines were used in which the activity of endogenous genes or stably integrated reporter genes provided a facile method to quantify the effect of the flavonoids. The compound library was tested for their effects on gene expression mediated by the estrogen receptor, androgen receptor, progesterone receptor, and glucocorticoid receptor. […] Compound 2 differs from compound 1 by the addition of a hydroxyl group at carbon 3 of the flavone scaffold. We reasoned that other substitutions at position 3 could have estrogenic activity. Two novel compounds were tested: compound 3 (6-hydroxy-2-(4-hydroxyphenyl)-3-methyl-4H-chromen-4-one) and compound 4 (3-fluoro-6-hydroxy-2-(4-hydroxyphenyl)-4H-chromen-4-one) of Table 1, which have a methyl or fluoro moiety, respectively, at position 3.

[1] = system: Estrogen Response Element (ERE)-luciferase reporter gene; test: Cell culture-reporter gene assay of estrogenic activity (T47D ERE-luciferase); format: cell-based; conditions: for EC50: Homo sapiens, T47D breast cancer cell line, ERE-luciferase, treated 20 hours, FIG. 4; for estrogenic activity (luciferase) in words: compared to estradiol 1 nM
Protocol: Estrogenic activity was compared to an optimal dose of estradiol (1 nM). Results from cell culture-reporter gene assay was performed in which a T47D breast cancer cell line with a stably integrated Estrogen Response Element (ERE)-luciferase reporter gene was treated for 20 hours with the indicated doses of test compounds (FIG. 4). Luciferase activity was compared to an optimal dose of estradiol (1 nM).

ovariectomized rat [2] = test: Vaginal mucin 5B immunohistochemistry, semi-quantitative score, ovariectomized rat; format: in vivo; conditions: intravaginal suppository daily for 14 days
Protocol: (§1) Compound 4 of Table 1 was tested in the ovariectomized rat, a model of GSM, (Yousefzadeh N, et al., Ovariectomized rat model of osteoporosis: a practical guide. EXCLI J. 2020 Jan. 10; 19:89-107. doi: 10.17179/excli2019-1990). […] To determine the depth of the epithelium, high quality 100x images were taken of the two regions and thickness of the epithelium measured at 25 distinct sites at each level for each animal, then averaged. […] P values were determined by student's T-test. […]
To investigate compound 4-mediated production of mucins in more detail, we investigated the production and presence of mucin 5B in the rat vagina. […] A semi-quantitative scoring system for the mucin 5B immunohistochemistry was designed with values between 0 to 2 in increments of 0.5 for the quantity of mucin 5B and the depth of the epithelium positive for mucin 5B, and then assessed at the levels 1, 2&3, 4&5, and 6&7. The presence of mucin 5B in the vaginal lumen was also assessed, then all values were summed for each animal. […] P values were determined by student's T-tests.

ovariectomized rat [3] = test: Behavior, appearance, weight and necropsy findings of treated rats; format: in vivo; conditions: intravaginal suppository daily for 14 days
Protocol: (§2) Compound 4 of Table 1 was tested in the ovariectomized rat, a model of GSM, (Yousefzadeh N, et al., Ovariectomized rat model of osteoporosis: a practical guide. EXCLI J. 2020 Jan. 10; 19:89-107. doi: 10.17179/excli2019-1990). Six rats were tested in each of five treatment groups: rats treated with low or high concentrations of control (vehicle only); rats treated with low (0.2 mg/suppository or high (1.0 mg/suppository levels of compound 4 (abbreviated as “3F” in these figures); and rats treated with estradiol 0.1 microgram/suppository. Suppositories were administered intravaginally daily for 14 days. There were two sets of vehicle controls, corresponding to the level of excipients used in the in the low and high compound 4 treatment conditions. The estradiol treatment condition had excipients equivalent to the high control and high compound 4 treatment conditions. The individuals performing the drug treatment of the animals, their gross evaluations, sacrifice and dissection were blinded to the treatment that each group received. […] J Steroid Biochem Mol Biol. 2008 March; 109(1-2):67-80 doi: 10.1016/j.jsbmb.2007.09.023). […] To determine the depth of the epithelium, high quality 100x images were taken of the two regions and thickness of the epithelium measured at 25 distinct sites at each level for each animal, then averaged. […] P values were determined by student's T-test. […]

ovariectomized rat [4] = test: Depth of vaginal epithelium in ovariectomized rat model of GSM; format: in vivo
Protocol: Independent measurement from mid-vagina (sections 3-4) and vagina near the cervix (sections 6-7) are shown. Twenty-five separate measurements were performed on sections 3-4 and also on sections 6-7 for each animal. There were 6 animals per treatment group, therefore each bar represents the mean of 150 measurements with the vertical line indicating one standard deviation.
as §1

[5] = Level in systemic circulation after suppository regimen; format: in vivo; conditions: female, rat, other: intravaginal suppository, one day after a two-week, daily suppository administration regimen, read-out: level in the systemic circulation (undetectable, LOD)
Protocol: as §2

ovariectomized rat [6] = test: Ki67 immunohistochemistry of vaginal sections, ovariectomized rat; format: in vivo; conditions: high compound 4, 1.0 mg/suppository daily for 14 days
Protocol: Compound 4 of Table 1 was tested in the ovariectomized rat, a model of GSM, (Yousefzadeh N, et al., Ovariectomized rat model of osteoporosis: a practical guide. EXCLI J. 2020 Jan. 10; 19:89-107. doi: 10.17179/excli2019-1990). Six rats were tested in each of five treatment groups: rats treated with low or high concentrations of control (vehicle only); rats treated with low (0.2 mg/suppository or high (1.0 mg/suppository levels of compound 4 (abbreviated as “3F” in these figures); and rats treated with estradiol 0.1 microgram/suppository. Suppositories were administered intravaginally daily for 14 days. There were two sets of vehicle controls, corresponding to the level of excipients used in the in the low and high compound 4 treatment conditions. The estradiol treatment condition had excipients equivalent to the high control and high compound 4 treatment conditions. […] To determine the depth of the epithelium, high quality 100x images were taken of the two regions and thickness of the epithelium measured at 25 distinct sites at each level for each animal, then averaged. […] P values were determined by student's T-test. […]
Ki-67 is a protein expressed in G1, S, G2, and M phase and has been established as a marker of cellular proliferation. […] Approximately 800 cells were assessed on each slide. […] P values were determined by student's T-test.

ovariectomized rat [7] = test: Ki67 immunohistochemistry of uterine sections, ovariectomized rat; format: in vivo; conditions: estradiol 0.1 microgram/suppository daily for 14 days
Protocol: as §1
Ki67 IHC was performed on a uterine section from animals in the control, the high level of compound 4 (abbreviated as “3F” in these figures), and estradiol groups. […] Approximately 800 cells were assessed for each animal within a group, then averaged to obtain the group mean. […] P values were determined by student T-test.

ovariectomized rat [8] = test: Thickness of uterine endometrium, myometrium and bladder urothelium, ovariectomized rat; format: in vivo; conditions: estradiol 0.1 microgram/suppository daily for 14 days
Protocol: as §1
To ascertain whether compound 4 has an effect on the epithelium of anatomically neighboring tissues, the thickness of the epithelium was assessed in the uterus (a known target tissue of physiological levels of estradiol) and bladder (not an estrogen target tissue). The rats from the five treatment groups in the ovariectomized rat model of GSM described in Example 2 were evaluated for the effects of compound 4 on growth of uterus and bladder. […] The endometrium, myometrium, and urothelium thickness of each animal (n=6) were measured in 20 locations and averaged. […] P values were determined by student T-test.

Which “estrogen agonist effect on estrogen receptor-mediated gene expression” value (estrogen receptor) does the source give for O=c1cc(-c2ccc(O)cc2)oc2ccc(O)cc12 [compound 1, 6-hydroxy-2-(4-hydroxyphenyl)-4H-chromen-4-one] here?
Its value is “estrogen agonist”.

Which EC50 [1] does the source give for O=c1c(O)c(-c2ccc(O)cc2)oc2ccc(O)cc12 [compound 2, 3,6-dihydroxy-2-(4-hydroxyphenyl)-4H-chromen-4-one] here?
Its EC50 is 44 nM.

What about the “estrogen agonist effect on estrogen receptor-mediated gene expression” value (estrogen receptor) of the same compound?
Its value is “superior potency as an estrogen receptor agonist compared to compound 1”.

With Cc1c(-c2ccc(O)cc2)oc2ccc(O)cc2c1=O [compound 3, 6-hydroxy-2-(4-hydroxyphenyl)-3-methyl-4H-chromen-4-one] as the compound, how does the “potency compared to compound 2 (fold less potent)” value ([1]; T47D ERE-luciferase, 20 hours) read?
The value was “about 10 fold”.

And the “estrogenic activity (luciferase) in words” value ([1]; T47D ERE-luciferase, 20 hours)?
The value was “at very high doses appears to have superagonist activity”.

For O=c1c(F)c(-c2ccc(O)cc2)oc2ccc(O)cc12 [compound 4, 3-fluoro-6-hydroxy-2-(4-hydroxyphenyl)-4H-chromen-4-one], which “vaginal production of mucins, in words” value (ovariectomized rat [2]) is on record?
Its value is “stimulates the vaginal production of mucins; also recorded: lower dose of compound 4 treatment results in somewhat higher mucin production than higher dose”.

What about the “effect on animal behavior, appearance, weight, necropsy findings” value (ovariectomized rat [3]) of the same compound?
The value was “does not affect animal behavior, appearance, weight, or necropsy findings”.

What about the “effect on vaginal epithelium structure, in words” value (ovariectomized rat [4]; 0.2 and 1.0 mg/suppository intravaginally daily for 14 days) of the same compound?
Its value is “dose dependent; also recorded: can restore the structure of the degenerate vaginal epithelium to the same level as estradiol”.

What about the “mean epithelial depth, p value vs corresponding control” value (ovariectomized rat [4]; low compound 4, 0.2 mg/suppository intravaginally daily for 14 days, both regions, borderline significant) of the same compound?
The value was “≈ 0.05”.

And the EC50 [1]?
The EC50 was 24 nM.

And the “estrogenic activity (luciferase) in words” value ([1]; T47D ERE-luciferase, 20 hours)?
The value was “robust estrogenic activity and superior potency compared to compound 2”.

What about the concentration at 1 day [5] of the same compound?
The concentration at 1 day was under 0.33 ng/mL.

What about the “percent Ki67 positive cells in vaginal basal and parabasal layers vs control” value (ovariectomized rat [6]) of the same compound?
The value was “no statistical difference between the groups”.

Which results are given for C[C@]12CC[C@@H]3c4ccc(O)cc4CC[C@H]3[C@@H]1CC[C@@H]2O [estradiol]?
mean percent Ki67 positive uterine cells vs control (ovariectomized rat [7]): None of the pairs exhibited a significant difference; endometrium, myometrium, and urothelium thickness vs control (ovariectomized rat [8]): None of the pairs exhibited a significant difference
